How the values were obtained:
[1] = tested on: HCVcc, genotype 2a, JFH-1 strain; assay: HCVcc assay, extracellular and intracellular viral RNA by quantitative real-time PCR; type: cell-based, HCV; conditions: for extracellular viral RNA level / intracellular viral RNA level: compound at 10 μM, Huh 7.5.1 cells, 48 h, vs DMSO
Method: Huh 7.5.1 cells were seeded in 12-well plates (10^5 cells/well) and cultured overnight. HCVcc was used to infect the cells with the treatment of compounds at 10 μM. Virus-containing medium was removed after 4 h incubation and compound treatment was added back followed by incubation for additional 48 h. Intracellular and extracellular viral RNA levels were evaluated by quantitative real-time PCR. The results are illustrated in FIG. 1 and are the means of three replicates ±SEM. […] Cyclosporin A at 10 μM was used as positive control.
Cell Culture-derived HCV (HCVcc, genotype 2a, JFH-1 strain) system provides direct evidence of anti-HCV activity of the compounds.
(§1) Cell Culture-derived HCV (HCVcc, genotype 2a, JFH-1 strain) system provides direct evidence of anti-HCV activity of the compounds. Determination of both extracellular and intracellular HCV levels can help evaluate whether the compounds interfere early-stage or late-stage infection. […] Cyclosporin A was tested in parallel to serve as control compound targeting early-stage HCV infection. […] At the highest concentration, cyclosporin A caused approximately 4-log fold reduction in intracellular RNA copies, while the extracellular level reduced less than […]. On the contrary, NCGC00345021 led to only about 1-log fold decrease in intracellular RNA copies when causing 3-log fold reduction in extracellular RNA level. Clearly, when the concentration increased, NCGC00345021 led to a more dramatic reduction in extracellular RNA copies.

HCVsc, genotype 2a = type: cell-based, HCV; conditions: for inhibitory activity in the HCVsc infection level: 10 μM, Huh 7.5.1 cells, luciferase 48 h
HCV replicon GT 1b = type: cell-based; conditions: 10 μM; luciferase 48 h
HCV replicon GT 2a = type: cell-based; conditions: for inhibitory effect in replicon GT 2a cell line: 10 μM, luciferase 48 h
replicon GT 1a = assay: Transient replicon assay, GT 1a; type: cell-based, HCV; conditions: 10 μM; 48 h; Huh7.5.1 cells
HCVpp GT 1a = type: cell-based, HCV; conditions: for inhibitory activity in HCVpp GT 1a: 10 μM, Huh 7.5.1 cells
HCVpp GT 1b = type: cell-based, HCV; conditions: 10 μM; Huh 7.5.1 cells
HCV-Luc = HCV-Luc infection assay; type: cell-based; conditions: Hepatitis C virus; for EC50: Table 3, read-out: EC50
Huh7.5.1 cells = assay: in vitro; conditions: human
Source text: (§2) EC50 was generated using the HCV-Luc infection assay and IC50 using the ATPLite assay.
(§3) EC50 was generated using the HCV-Luc infection assay and TC50 using the ATPLite assay.
(§4) The cytotoxicity of the compounds was further evaluated in HepG2 cells and primary human hepatocytes.

[2] = ATPlite assay run in parallel with the combination HCV-Luc assay; type: cell-based; conditions: (S)-CCZ combined with anti-HCV drugs
Method: Combination of ribavirin and peginterferon α (IFN-α) has been the standard of care to treat chronic HCV infection for many years. Direct-acting antivirals, such as telaprevir and daclatasvir, were recently approved for therapy of hepatitis C. The combination of (S)-CCZ with these different classes of anti-HCV drugs is described in this example. HCV-Luc assay in parallel with ATPlite assay was performed in the presence of various concentrations of (S)-CCZ in combination with various concentrations of each drug. Using the MacSynergy II program based on Bliss independence model, three-dimensional surface plots were generated and log volume of synergism was calculated for each combination. The results were also analyzed with the CalcuSyn program, in which the combination indices were calculated.

HCV genotype 1b = type: in vivo, mice
HCV genotype 2a = type: in vivo, mice
[3] = ATPLite cytotoxicity assay; conditions: human, Huh7.5.1 cells
Source text: as §2, §3, §4

[4] = tested on: HCVcc, genotype 2a, JFH-1 strain; assay: TCID50 determination: re-infection of naive Huh 7.5.1 cells with medium from the HCVcc assay; type: cell-based, HCV; conditions: medium with extracellular virus used to re-infect naive Huh 7.5.1 cells
Method: FIG. 4B illustrates the TCID50 of naïve Huh 7.5.1 cells that were infected using medium collected in the HCVcc assay run using 0.32, 1.0, and 3.2 μM concentrations of NCGC00345021 and 0.032, 0.10 and 0.32 μM concentrations of Cyclosporin A.
as §1

GT 2a replicon RNA = assay: Transient replicon assay, GT 2a; type: cell-based, HCV
VSVpp = type: cell-based
Dengue RVP = assay: Dengue Reporter Virus Particles (RVPs) reproducibility assay; conditions: increasing concentrations; Huh 7.5.1 cells; luciferase 48 h
Method: Huh 7.5.1 cells seeded in 96-well plates (10^4 cells/well) were cultured overnight. […] The results are means of three replicates ±SEM.

In the case of `CN1CCN([C@@H](c2ccccc2)c2ccc(Cl)cc2)CC1` [(S)-CCZ, (S)-1-((4-Chlorophenyl)(phenyl)methyl)-4-methylpiperazine], the “extracellular viral RNA level” value [1] is reported as “reduced”, the “intracellular viral RNA level” value [1] is reported as “reduced” and the “inhibitory activity in the HCVsc infection level” value (HCVsc, genotype 2a) is reported as “significant inhibitory activities”. The “inhibitory effect in replicon GT 1b cell line” value (HCV replicon GT 1b) was “did not show much inhibitory effect”, the “inhibitory effect in replicon GT 2a cell line” value (HCV replicon GT 2a) was “did not show much inhibitory effect” and the “inhibition in transient replicon GT 1a” value (replicon GT 1a) was “no inhibition was observed”. The “inhibitory activity in HCVpp GT 1a” value (HCVpp GT 1a) was “None of racemic, (R) and (S)-CCZ showed any inhibitory activities”, the “inhibitory activity in HCVpp GT 1b” value (HCVpp GT 1b) was “None of racemic, (R) and (S)-CCZ showed any inhibitory activities” and the EC50 (HCV-Luc) was 0.024 ± 0.009 µM. The CC50 (Huh7.5.1 cells) was 33.4 ± 2.4 µM, the “cytotoxicity of the combinations” value [2] was “without significant cytotoxicity” and the “decrease of genotype 1b virus titer” value (HCV genotype 1b; 2 mg/kg daily) was “approximately 1 log”. For the same molecule, the “reduction of HCV titer from pretreatment baseline, genotype 1b” value (HCV genotype 1b; 50 mg/kg and 10 mg/kg daily, 4 weeks of treatment) was 2 log, the “HCV titers during the treatment period (drug resistance), genotype 1b” value (HCV genotype 1b; during treatment) was “continued to decline during the treatment period without rebound” and the “reduction of HCV titer from pretreatment baseline, genotype 2a” value (HCV genotype 2a; 50 mg/kg and 10 mg/kg daily, 6-week treatment) was 1.5 log. For the same molecule, the “HCV titers during the treatment period (drug resistance), genotype 2a” value (HCV genotype 2a; during treatment) was “continued to decline during the treatment period without rebound”.
For `CN1CCN(C(c2ccccc2)c2ccc(Cl)cc2)CC1` (racemic) [racemic CCZ, 1-((4-Chlorophenyl)(phenyl)methyl)-4-methylpiperazine, reference compound], the “extracellular viral RNA level” value [1] was “reduced”, the “intracellular viral RNA level” value [1] was “reduced” and the “inhibitory activity in the HCVsc infection level” value (HCVsc, genotype 2a) was “significant inhibitory activities”. The “inhibitory effect in replicon GT 1b cell line” value (HCV replicon GT 1b) was “did not show much inhibitory effect”, the “inhibitory effect in replicon GT 2a cell line” value (HCV replicon GT 2a) was “did not show much inhibitory effect” and the “inhibition in transient replicon GT 1a” value (replicon GT 1a) was “no inhibition was observed”. For the same molecule, the “inhibitory activity in HCVpp GT 1a” value (HCVpp GT 1a) was “None of racemic, (R) and (S)-CCZ showed any inhibitory activities”, the “inhibitory activity in HCVpp GT 1b” value (HCVpp GT 1b) was “None of racemic, (R) and (S)-CCZ showed any inhibitory activities” and the EC50 (HCV-Luc) was 0.044 ± 0.011 µM. The CC50 [3] was 49.8 ± 17.2 µM.
In the case of `COc1ccc(CN2CCC(N(CCc3ccccc3)Cc3ccccc3)CC2)c(OC)c1` [NCGC00345021, N-Benzyl-1-(2,4-dimethoxybenzyl)-N-phenethylpiperidin-4-amine], the “reduction in extracellular RNA level” value ([1]; at the highest concentration) is reported as 3 log fold, the “reduction in intracellular RNA copies” value ([1]; at the highest concentration) is reported as “about 1 log fold” and the TCID50 values [4] is reported as “dose-dependent reduction”. For the same molecule, the “inhibitory activity in the HCVsc infection level” value (HCVsc, genotype 2a) was “no significant inhibitory activities”, the “% RLU at 10 μM, HCVsc” value (HCVsc, genotype 2a; mean of five replicates ±SEM) was 104 ± 9.95 % RLU and the “inhibitory effect in replicon GT 2a cell line” value (HCV replicon GT 2a) was “did not show any inhibitory effect”. For the same molecule, the “% RLU at 10 μM, HCV subgenomic replicon GT 2a cell line” value (HCV replicon GT 2a; mean of five replicates ±SEM) was 54.4 ± 2.96 % RLU, the “inhibition of viral replication, transient GT 2a replicon” value (GT 2a replicon RNA; 10 μM, Huh 7.5.1 cells) was “modest inhibition” and the “% RLU at 10 μM, HCV subgenomic replicon Transient GT 2a” value (GT 2a replicon RNA; mean of five replicates ±SEM) was 139 ± 16.4 % RLU. For the same molecule, the “inhibitory activity in HCVpp GT 1a” value (HCVpp GT 1a) was “low inhibitory activity”, the “% RLU at 10 μM, HCVpp GT 1a” value (HCVpp GT 1a; mean of five replicates ±SEM) was 66.3 ± 9.49 % RLU and the “% RLU at 10 μM, VSVpp” value (VSVpp) was 103 ± 6.73 % RLU. The “inhibition on VSVpp” value (VSVpp; 10 μM) was “no inhibition”, the inhibition at 0.01 µM (HCV-Luc; at 10 nM) was greater than 90% and the “Dengue RVP reproducibility” value (Dengue RVP) was “dose-dependent inhibition”.
With `CN1CCN([C@H](c2ccccc2)c2ccc(Cl)cc2)CC1` [(R)-CCZ, (R)-1-((4-Chlorophenyl)(phenyl)methyl)-4-methylpiperazine] the “extracellular viral RNA level” value [1] was “reduced”, the “intracellular viral RNA level” value [1] was “reduced” and the “inhibitory activity in the HCVsc infection level” value (HCVsc, genotype 2a) was “significant inhibitory activities”. For the same molecule, the “inhibitory effect in replicon GT 1b cell line” value (HCV replicon GT 1b) was “did not show much inhibitory effect”, the “inhibitory effect in replicon GT 2a cell line” value (HCV replicon GT 2a) was “did not show much inhibitory effect” and the “inhibition in transient replicon GT 1a” value (replicon GT 1a) was “no inhibition was observed”. For the same molecule, the “inhibitory activity in HCVpp GT 1a” value (HCVpp GT 1a) was “None of racemic, (R) and (S)-CCZ showed any inhibitory activities”, the “inhibitory activity in HCVpp GT 1b” value (HCVpp GT 1b) was “None of racemic, (R) and (S)-CCZ showed any inhibitory activities” and the EC50 (HCV-Luc) was 0.02 ± 0.005 µM. The CC50 (Huh7.5.1 cells) was 37.5 ± 4.2 µM.

Source: patent US20170001988A1, “PIPERIDINE AND PIPERAZINE DERIVATIVES AND THEIR USE IN TREATING VIRAL INFECTIONS AND CANCER” (THE UNITED STATES OF AMERICA, AS REPRESENTED BY THE …, priority 2013, published 2017)
